Assays:
Danio rerio embryo [1] = test: EC50 Yolk sac size_Increase; details: exposure time: 4 dpf
Description: (§1)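 Zebrafish embryos (UFZ-OBI strain) were exposed from 2 hpf for 48 h (2 dpf) or 96 h (4 dpf) at 28 °C; spontaneous tail coiling was scored at 25 hpf. Morphological features from automated image analysis (FishInspector), heart rate and locomotor response were fitted with drc models. Quantal endpoints were dichotomised at 2.5 SD from controls and fitted with a log-logistic model; heart rate, pigmentation and STC were normalised to the replicate control mean. Betamethasone was tested as betamethasone dipropionate, diflorasone as diflorasone diacetate.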

Danio rerio embryo [2] = test: EC10 Pigmentation increase; higher = less potent; details: exposure time: 4 dpf
Description: as §1

Danio rerio embryo [3] = test: EC10 LMR dark; higher = less potent; details: exposure time: 4 dpf
Description: as §1

Danio rerio embryo [4] = test: EC50 Pericard size_Increase; details: exposure time: 4 dpf
Description: as §1

Danio rerio embryo [5] = test: EC10 STC decrease; higher = less potent; details: exposure time: 25 h
Description: as §1

Danio rerio embryo [6] = test: EC10 Pericard size_Increase; higher = less potent; details: exposure time: 4 dpf
Description: as §1

Danio rerio embryo [7] = test: EC10 Body length_Decrease; higher = less potent
Description: as §1

Danio rerio embryo [8] = test: EC20 Body length_Decrease; higher = less potent
Description: as §1

Danio rerio embryo [9] = test: EC20 Any effect; higher = less potent
Description: as §1

Danio rerio embryo [10] = test: EC50 Body length_Decrease
Description: as §1

Danio rerio embryo [11] = test: EC10 Any effect; higher = less potent
Description: as §1

Danio rerio embryo [12] = test: EC20 Heart rate; higher = less potent
Description: as §1

Danio rerio embryo [13] = test: EC20 LMR dark; higher = less potent; details: exposure time: 4 dpf
Description: as §1

Danio rerio embryo [14] = test: EC20 Pericard size_Increase; higher = less potent; details: exposure time: 4 dpf
Description: as §1

Danio rerio embryo [15] = test: EC20 STC decrease; higher = less potent; details: exposure time: 25 h
Description: as §1

Danio rerio embryo [16] = test: EC20 Bladder size_Decrease; higher = less potent; details: exposure time: 4 dpf
Description: as §1

Danio rerio embryo [17] = details: exposure time: 4 dpf
Description: as §1

Danio rerio embryo [18] = test: EC50 Bladder size_Decrease; details: exposure time: 4 dpf
Description: as §1

Danio rerio embryo [19] = test: EC10 Heart rate; higher = less potent
Description: as §1

Danio rerio embryo [20] = test: spontaneous tail coiling frequency (coils/min/embryo); higher = more spontaneous movement; details: 25 hpf
Description: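 Spontaneous tail coilings of zebrafish embryos exposed from 2 hpf were recorded at 24-25 hpf in 1-min videos and detected by a KNIME workflow from grey-value variance. Betamethasone was tested as the dipropionate, diflorasone as the diacetate.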

Danio rerio embryo [21] = test: EC20 Pigmentation increase; higher = less potent; details: exposure time: 4 dpf
Description: as §1

Danio rerio embryo [22] = test: EC20 Yolk sac size_Increase; higher = less potent; details: exposure time: 4 dpf
Description: as §1

Danio rerio embryo [23] = details: exposure time: 4 dpf; remark: listed apart in the source
Description: as §1

Danio rerio embryo [24] = test system: Danio rerio embryo
Description: as §1

Danio rerio embryo [25] = test: EC20 Eye-jaw distance_Decrease; higher = less potent; details: exposure time: 4 dpf
Description: as §1

Danio rerio embryo [26] = test: EC10 Bladder size_Decrease; higher = less potent; details: exposure time: 4 dpf
Description: as §1

Danio rerio embryo [27] = test: EC50 Eye-jaw distance_Decrease; details: exposure time: 4 dpf
Description: as §1

Danio rerio embryo [28] = test: EC10 Lack of SB; higher = less potent; details: exposure time: 4 dpf
Description: as §1

Danio rerio embryo [29] = test: EC10 Eye-jaw distance_Decrease; higher = less potent; details: exposure time: 4 dpf
Description: as §1

Danio rerio embryo [30] = test: EC10 Yolk sac size_Increase; higher = less potent; details: exposure time: 4 dpf
Description: as §1

Danio rerio embryo [31] = test: EC20 Lack of SB; higher = less potent; details: exposure time: 4 dpf
Description: as §1

CNCCC=C1c2ccccc2CCc2ccccc21 [Nortriptyline]
Details	EC10 Bladder size Decrease [µM]	EC10 Eye-jaw distance Decrease [µM]	EC10 LMR dark [µM]	EC10 Lack of SB [µM]	EC10 Pericard size Increase [µM]	EC10 Pigmentation increase [µM]	EC10 STC decrease [µM]	EC10 Yolk sac size Increase [µM]	EC20 Bladder size Decrease [µM]	EC20 Eye-jaw distance Decrease [µM]	EC20 LMR dark [µM]	EC20 Lack of SB [µM]	EC20 Pericard size Increase [µM]	EC20 Pigmentation increase [µM]	EC20 STC decrease [µM]	EC20 Yolk sac size Increase [µM]	EC50 Bladder size Decrease [µM]	EC50 Eye-jaw distance Decrease [µM]	EC50 LMR dark [µM]	EC50 Lack of SB [µM]	EC50 Pericard size Increase [µM]	EC50 Yolk sac size Increase [µM]
Danio rerio embryo [1]	–	–	–	–	–	–	–	–	–	–	–	–	–	–	–	–	–	–	–	–	–	29.2
Danio rerio embryo [2]	–	–	–	–	–	0.889	–	–	–	–	–	–	–	–	–	–	–	–	–	–	–	–
Danio rerio embryo [3]	–	–	0.745	–	–	–	–	–	–	–	–	–	–	–	–	–	–	–	–	–	–	–
Danio rerio embryo [4]	–	–	–	–	–	–	–	–	–	–	–	–	–	–	–	–	–	–	–	–	20.4	–
Danio rerio embryo [5]	–	–	–	–	–	–	3.44	–	–	–	–	–	–	–	–	–	–	–	–	–	–	–
Danio rerio embryo [6]	–	–	–	–	16.5	–	–	–	–	–	–	–	–	–	–	–	–	–	–	–	–	–
Danio rerio embryo [13]	–	–	–	–	–	–	–	–	–	–	1.96	–	–	–	–	–	–	–	–	–	–	–
Danio rerio embryo [14]	–	–	–	–	–	–	–	–	–	–	–	–	17.8	–	–	–	–	–	–	–	–	–
Danio rerio embryo [15]	–	–	–	–	–	–	–	–	–	–	–	–	–	–	8.4	–	–	–	–	–	–	–
Danio rerio embryo [16]	–	–	–	–	–	–	–	–	4.76	–	–	–	–	–	–	–	–	–	–	–	–	–
Danio rerio embryo [17]	–	–	–	–	–	–	–	–	–	–	–	–	–	–	–	–	–	–	10.3	–	–	–
Danio rerio embryo [18]	–	–	–	–	–	–	–	–	–	–	–	–	–	–	–	–	5.07	–	–	–	–	–
Danio rerio embryo [21]	–	–	–	–	–	–	–	–	–	–	–	–	–	1.83	–	–	–	–	–	–	–	–
Danio rerio embryo [22]	–	–	–	–	–	–	–	–	–	–	–	–	–	–	–	18.7	–	–	–	–	–	–
Danio rerio embryo [23]	–	–	–	–	–	–	–	–	–	–	–	–	–	–	–	–	–	–	–	5.07	–	–
Danio rerio embryo [25]	–	–	–	–	–	–	–	–	–	18.3	–	–	–	–	–	–	–	–	–	–	–	–
Danio rerio embryo [26]	4.59	–	–	–	–	–	–	–	–	–	–	–	–	–	–	–	–	–	–	–	–	–
Danio rerio embryo [27]	–	–	–	–	–	–	–	–	–	–	–	–	–	–	–	–	–	21.5	–	–	–	–
Danio rerio embryo [28]	–	–	–	4.59	–	–	–	–	–	–	–	–	–	–	–	–	–	–	–	–	–	–
Danio rerio embryo [29]	–	16.6	–	–	–	–	–	–	–	–	–	–	–	–	–	–	–	–	–	–	–	–
Danio rerio embryo [30]	–	–	–	–	–	–	–	14.5	–	–	–	–	–	–	–	–	–	–	–	–	–	–
Danio rerio embryo [31]	–	–	–	–	–	–	–	–	–	–	–	4.76	–	–	–	–	–	–	–	–	–	–

Details	EC10 Any effect [µM]	EC10 Body length Decrease [µM]	EC10 Heart rate [µM]	EC20 Any effect [µM]	EC20 Body length Decrease [µM]	EC20 Heart rate [µM]	EC50 Any effect [µM]	EC50 Body length Decrease [µM]	EC50 STC decrease [µM]	spontaneous tail coiling frequency
Danio rerio embryo [7], exposure time: 2 dpf	–	34	–	–	–	–	–	–	–	–
Danio rerio embryo [8], exposure time: 2 dpf	–	–	–	–	36.3	–	–	–	–	–
Danio rerio embryo [9], exposure time: 2 dpf	–	–	–	36.4	–	–	–	–	–	–
Danio rerio embryo [9], exposure time: 4 dpf	–	–	–	19.1	–	–	–	–	–	–
Danio rerio embryo [10], exposure time: 2 dpf	–	–	–	–	–	–	–	40.6	–	–
Danio rerio embryo [11], exposure time: 2 dpf	30	–	–	–	–	–	–	–	–	–
Danio rerio embryo [11], exposure time: 4 dpf	17.5	–	–	–	–	–	–	–	–	–
Danio rerio embryo [12], exposure time: 2 dpf	–	–	–	–	–	79.7	–	–	–	–
Danio rerio embryo [12], exposure time: 4 dpf	–	–	–	–	–	19.3	–	–	–	–
Danio rerio embryo [19], exposure time: 2 dpf	–	–	39.8	–	–	–	–	–	–	–
Danio rerio embryo [19], exposure time: 4 dpf	–	–	9.66	–	–	–	–	–	–	–
Danio rerio embryo [20], 0.3 µM	–	–	–	–	–	–	–	–	–	2.44
Danio rerio embryo [20], 3.3 µM	–	–	–	–	–	–	–	–	–	2.01
Danio rerio embryo [20], 13.2 µM	–	–	–	–	–	–	–	–	–	2.12
Danio rerio embryo [20], 16.9 µM	–	–	–	–	–	–	–	–	–	1.32
Danio rerio embryo [20], 19.8 µM	–	–	–	–	–	–	–	–	–	2.06
Danio rerio embryo [20], 29.6 µM	–	–	–	–	–	–	–	–	–	1.39
Danio rerio embryo [20], 33.9 µM	–	–	–	–	–	–	–	–	–	1.27
Danio rerio embryo [20], 44.5 µM	–	–	–	–	–	–	–	–	–	1.1
Danio rerio embryo [20], 66.7 µM	–	–	–	–	–	–	–	–	–	1.79
Danio rerio embryo [20], 67.8 µM	–	–	–	–	–	–	–	–	–	1.17
Danio rerio embryo [20], 100 µM	–	–	–	–	–	–	–	–	–	0.43
Danio rerio embryo [20], 100.1 µM	–	–	–	–	–	–	–	–	–	1.13
Danio rerio embryo [20], 133.4 µM	–	–	–	–	–	–	–	–	–	0.28
Danio rerio embryo [20], 135.6 µM	–	–	–	–	–	–	–	–	–	0
Danio rerio embryo [24], exposure time: 2 dpf	–	–	–	–	–	–	50.5	–	–	–
Danio rerio embryo [24], exposure time: 4 dpf	–	–	–	–	–	–	22.1	–	–	–
Danio rerio embryo [24], exposure time: 25 h	–	–	–	–	–	–	–	–	39	–

Cc1cc2c(s1)Nc1ccccc1N=C2N1CCN(C)CC1 [Olanzapine]
Details	EC10 Bladder size Decrease [µM]	EC10 LMR dark [µM]	EC10 Lack of SB [µM]	EC10 Pericard size Increase [µM]	EC20 Bladder size Decrease [µM]	EC20 LMR dark [µM]	EC20 Lack of SB [µM]	EC20 Pericard size Increase [µM]	EC50 Bladder size Decrease [µM]	EC50 LMR dark [µM]	EC50 Lack of SB [µM]	EC50 Pericard size Increase [µM]
Danio rerio embryo [3]	–	5.65	–	–	–	–	–	–	–	–	–	–
Danio rerio embryo [4]	–	–	–	–	–	–	–	–	–	–	–	53.1
Danio rerio embryo [6]	–	–	–	26.4	–	–	–	–	–	–	–	–
Danio rerio embryo [13]	–	–	–	–	–	9.63	–	–	–	–	–	–
Danio rerio embryo [14]	–	–	–	–	–	–	–	34.1	–	–	–	–
Danio rerio embryo [16]	–	–	–	–	7.84	–	–	–	–	–	–	–
Danio rerio embryo [17]	–	–	–	–	–	–	–	–	–	24	–	–
Danio rerio embryo [18]	–	–	–	–	–	–	–	–	9.13	–	–	–
Danio rerio embryo [23]	–	–	–	–	–	–	–	–	–	–	9.71	–
Danio rerio embryo [26]	7.17	–	–	–	–	–	–	–	–	–	–	–
Danio rerio embryo [28]	–	–	8.09	–	–	–	–	–	–	–	–	–
Danio rerio embryo [31]	–	–	–	–	–	–	8.65	–	–	–	–	–

Details	EC10 Body length Decrease [µM]	EC20 Body length Decrease [µM]	EC50 Body length Decrease [µM]	spontaneous tail coiling frequency
Danio rerio embryo [7], exposure time: 4 dpf	17.7	–	–	–
Danio rerio embryo [8], exposure time: 4 dpf	–	24.7	–	–
Danio rerio embryo [10], exposure time: 4 dpf	–	–	43.8	–
Danio rerio embryo [20], 5.4 µM	–	–	–	2.35
Danio rerio embryo [20], 8.1 µM	–	–	–	2.37
Danio rerio embryo [20], 12.1 µM	–	–	–	2.38
Danio rerio embryo [20], 18.1 µM	–	–	–	1.89
Danio rerio embryo [20], 27.2 µM	–	–	–	2.465
Danio rerio embryo [20], 32 µM	–	–	–	2.44
